{"source": "patent US20100261246A1", "about": "“METHOD FOR INHIBITING TELOMERASE REACTION” (PANASONIC CORPORATION, priority 2009, published 2010)", "key": {"telomerase [1]": {"test_system": "telomerase", "test": "Telomerase activity measurement with S7700 kit, telomerase reaction and PCR carried out sequentially in one mix, ladder peaks by Bioanalyzer 2100", "format": "biochemical", "settings": "1.1 μM of TMPyP added", "description": "In this experiment, comparative studies of effects of inhibiting telomerase by an anionic phthalocyanine and cationic porphyrin (TMPyP) that is a conventionally known typical material having an effect of inhibiting telomerase were carried out using a kit for telomerase activity measurement manufactured by Millipore Corporation (TRAPEZE Telomeraze Detection Kit S7700).\nTRAPEZE Telomeraze Detection Kit S7700 (hereinafter, merely referred to as S7700 kit) is a kit that includes 10× TRAP Reaction buffer, 50× dNTPs Mix, TS primer, Primer Mix, and a control cell pellet.\nThe TS primer is an oligo DNA consisting of 5′-[sequence]-3′, and serves as an initiation sequence of the telomerase reaction upon binding of telomerase, similarly to a human telomeric DNA sequence.\nTherefore, the Primer Mix in the S7700 kit includes RP primer. This primer is an oligo DNA having a sequence complementary to the sequence elongated by the telomerase reaction, and thus, the telomerase reaction product can be amplified to a detectable level on electrophoresis by carrying out PCR using the aforementioned TS primer and the RP primer.\nAs described above, the telomerase reaction and PCR are carried out sequentially in the telomerase activity measurement using the S7700 kit. […]"}, "TITANIUM Taq polymerase": {"test_system": "TITANIUM Taq polymerase", "test": "PCR control (36-bp PCR amplification product) in S7700 kit one-mix reaction, Bioanalyzer 2100", "format": "biochemical", "settings": "TMPyP concentration not less than 3 μM", "protocol": "Therefore, TITANIUM […] polymerase (manufactured by Clontech Laboratories) was used in the present studies.\nFor example, it is highly probable that materials which nonspecifically bind to double-stranded DNAs inhibit PCR.\nThe S7700 kit includes a set of a template DNA and a primer for such ascertainment in the Primer Mix, and a 36-bp PCR amplification product is obtained from the set when the PCR is carried out.\nTherefore, when the effect of a material expected to inhibit the telomerase reaction is verified using the S7700 kit, it is necessary to confirm that the telomerase reaction product is not detected in final results of electrophoresis, and that the 36-bp PCR product is normally amplified.\nFirst, in accordance with the protocol of the kit, a telomerase solution was prepared from the attached control cell pellet. Next, a reaction solution in a total volume of 20 μL was prepared by mixing 2 μL of 10× TRAP Reaction buffer, 0.4 μL of 50× dNTP Mix, 0.4 μL of TS primer, 0.4 μL of Primer Mix, 0.4 μL of TITANIUM Taq polymerase, 14.8 μL of milliQ water (purified water), and 1.6 μL of the telomerase solution prepared as described above.\nSubsequently, the telomerase reaction was allowed by standing this reaction solution under a condition of 30° C. for 30 min. Thereafter, PCR was carried out by repeating 33 times a thermo cycle of: 30 sec at 94° C.; 30 sec at 59° C.; and 1 min at 72° C. […]"}, "telomerase [2]": {"test_system": "telomerase", "test": "Telomerase reaction carried out first, then PCR of the diluted reaction solution, gel electrophoresis, with or without λDNA", "format": "biochemical", "settings": "final concentrations 0.1 to 10 μM", "protocol": "(§1) Moreover, effects of inhibiting telomerase by TMPyP and anionic phthalocyanines were compared in Comparative Example 3 and Example 4 to 5 below. In these experiments, the S7700 kit was used similarly to the aforementioned Comparative Examples 1 to 2 and Examples 1 to 3. However, in Comparative Examples 1 to 2 and Examples 1 to 3 described above, the reagents required only for the telomerase reaction and PCR were all mixed first, and the telomerase reaction and PCR were carried out sequentially by regulating the reaction temperature. To the contrary, in the following Comparative Example 3 and Examples 4 to 5, only the reagents required for the telomerase reaction were first mixed to carry out a telomerase reaction, and a part of the reaction solution and the reagents required for the PCR were mixed to carry out the PCR.\nIn addition, in each of the following Comparative Example 3 and Examples 4 to 5, experiments were carried out with or without addition of a λDNA in the telomerase reaction. Addition of the λDNA was intended to reproduce for mimicking the conditions in which a large amount of double-stranded DNAs are present as in the case of genomic DNAs in cells, and to study the effects of inhibiting telomerase by TMPyP or anionic phthalocyanines even under conditions more approximate to those in vivo, by adding a λDNA.\nTelomerase reaction solution in a total volume of 10 μL were prepared by mixing 1 μL of 10× TRAP Reaction buffer, 0.2 μL of 50× dNTP Mix, 0.2 μL of TS primer, 4 μL of the telomerase solution prepared in Comparative Example 1, 2 μL of the TMPyP aqueous solution, and 2.6 μL of milliQ water (the reaction solutions having final TMPyP concentrations of 0 M, 0.1 μM, 0.3 μM, 1 μM, 3 μM and 10 μM were prepared, respectively). Then, the reaction solutions were stood under a condition of 30° C. for 60 min to allow a telomerase reaction to be carried out.\n(§2) Next, 4 μL of a solution prepared by diluting the solution after the telomerase reaction 20 times with milliQ water, 0.2 μL of 50× dNTP Mix, 0.2 μL of TS primer, 0.2 μL of Primer Mix, 0.1 μL of TaKaLa LA Taq Hot Start Version (manufactured by Takara Bio Inc.), 1 μL of 10× LA PCR buffer II (Mg^2+ plus) (buffer solution included in TaKaLa LA Taq Hot Start Version), and 4.3 μL of milliQ water were mixed to prepare a PCR solution in a total volume of 10 μL. Then, PCR was carried out by allowing this PCR solution to stand under temperature conditions in which a thermo cycle of: 30 sec at 95° C.; 30 sec at 59° C.; and 30 sec at 72° C. was repeated 30 times.\n(§3) Finally, the solution after the PCR was electrophoresed on a 10% polyacrylamide gel, and stained with GelStar Nucleic Acid Stain (manufactured by Takara Bio Inc.). […] In the order from the leftmost lane, the results with final concentrations of TMPyP being 0 M, 0.1 μM, 0.3 μM, 1 μM, 3 μM and 10 μM are shown.\nOn the other hand, experiments in which a λDNA was added to the telomerase reaction solution were also carried out. More specifically, in preparing the telomerase reaction solution described above, 2.6 μL of a λDNA solution (manufactured by Takara Bio Inc.) was mixed in place of mixing 2.6 μL of milliQ water. Other telomerase reaction temperature/time schedule, PCR solution preparation condition, PCR temperature/time schedule, electrophoresis condition were just the same."}, "[3]": {"test_system": "TaKaLa LA Taq Hot Start Version (polymerase reaction)", "test": "PCR control band in the separate telomerase reaction / PCR experiment", "format": "biochemical", "settings": "10 μM, no addition of λDNA", "protocol": "as §1, §2, §3"}, "[4]": {"test_system": "G-quadruplex structure (human telomeric oligo DNA)", "test": "Absorbance 480 to 800 nm of phthalocyanine mixed with G-quadruplex solutions", "format": "binding", "settings": "for interaction with the G-quadruplex structure (absorption peak): 15 μM compound solution, 50 mM HEPES, 100 mM NaCl, pH7", "protocol": "Hereinafter, the interaction between anionic phthalocyanines and various DNAs was studied in Examples 6, 7, 8 and 9. For this purpose, a solution containing a G-quadruplex structure, a solution including a single-stranded DNA, and a solution containing a double-stranded DNA were first prepared according to the following procedures.\nA solution of 50 mM HEPES and 100 mM NaCl, pH7 (total volume: 100 μL) containing a single-stranded DNA consisting of a sequence of 5′-[…]-3′ (SEQ ID NO: 2; this sequence being similar to a sequence of a human telomere portion, and thus the DNA referred to as “human telomeric oligo DNA” hereafter) was incubated at 90° C. for 5 min, and thereafter cooled to 0° C. at a rate of temperature fall of 2° C./min, followed by finally incubating at 0° C. for 2 hrs.\nThe concentrations of the human telomeric oligo DNA contained in the solution were 0, 0.5, 2, 5, 10, 25, 50 and 100 μM.\nThe absolute values of the positive and negative peaks were maximized for the solution having the human telomeric oligo DNA concentration of 100 μM, and dropped in the order of 50, 25, 10, 5, 2 and 0.5 μM. […] Hereafter, G-quadruplex solutions prepared from the solutions having human telomeric oligo DNA concentrations of 100, 50, 25, 10, 5, 2 and 0.5 μM are referred to as G-quadruplex solutions A, B, C, D, E, F and G, respectively. On the other hand, the solution without the human telomeric oligo DNA contained therein is referred to as NC solution.\nFirst, a solution of 50 mM HEPES and 100 mM NaCl, pH7 (total volume: 20 μL) containing 15 μM CuPC was prepared. Then, this CuPC solution was mixed with each of the G-quadruplex solutions C, D, E and F and the NC solution, and the absorbance of these liquid mixtures were measured at 480 to 800 nm.\nFirst, a solution of 50 mM HEPES and 100 mM NaCl, pH7 (total volume: 20 μL) containing 15 μM NiPC was prepared. Then, this NiPC solution was mixed with each of the G-quadruplex solutions D, E, F and G, and the NC solution, and the absorbance of these liquid mixtures were measured at 480 to 800 nm.\nFirst, a solution of 50 mM HEPES and 100 mM NaCl, pH7 (total volume: 20 μL) containing 15 μM PC was prepared. Then, this PC solution was mixed with each of the G-quadruplex solutions D, E, F and G, and the NC solution, and the absorbance of these liquid mixtures were measured at 480 to 800 nm.\nFirst, a solution of 50 mM HEPES and 100 mM NaCl, pH7 (total volume: 20 μL) containing 15 μM CoPC was prepared. Then, this CoPC solution was mixed with each of the G-quadruplex solutions B, C, D and G, and the NC solution, and the absorbance of these liquid mixtures were measured at 480 to 800 nm."}, "single-stranded DNA": {"test_system": "single-stranded DNA", "test": "Absorbance 480 to 800 nm of phthalocyanine mixed with single-stranded DNA solution", "format": "binding", "settings": "15 μM compound solution, DNA 50 μM, pH7", "protocol": "A solution of 50 mM HEPES and 100 mM NaCl, pH7 (total volume: 100 μL) containing a single-stranded DNA consisting of a sequence of 5′-[…]-3′ sequence (SEQ ID NO: 3) at a concentration of 50 μM was prepared, which was incubated at 90° C. for 5 min, and thereafter cooled to 0° C. at a rate of temperature fall of 2° C./min, followed by finally incubating at 0° C. for 2 hrs. The DNA in thus resulting solution was a single-stranded DNA even after the incubation (hereafter, the solution referred to as “single-stranded DNA solution”).\n(§4) Next, the aforementioned CuPC solution and single-stranded DNA solution, and the aforementioned CuPC solution and double-stranded DNA solution were similarly mixed, respectively. And then the absorbance of these liquid mixtures was measured at 480 to 800 nm. FIG. 9(A) and FIG. 9(B) show the results of the measurement in the cases of the single-stranded DNA solution and the double-stranded DNA solution, respectively.\nas §4, with “NiPC” for “CuPC”, “respectively;” for “respectively. And then”, “11(A)” for “9(A)”, “11(B)” for “9(B)”, “respectively. In each drawing, the result obtained when the NC solution was used is also shown together.” for “respectively.”\nas §4, with “PC” for “CuPC”, “respectively;” for “respectively. And then”, “mixture” for “mixtures”, “13(A)” for “9(A)”, “13(B)” for “9(B)”, “respectively. In each drawing, the result obtained when the NC solution was used is also shown together.” for “respectively.”\nas §4, with “CoPC” for “CuPC”, “respectively, and” for “respectively. And”, “15(A)” for “9(A)”, “15(B)” for “9(B)”, “respectively. In each drawing, the result obtained when the NC solution was used is also shown together.” for “respectively.”"}, "double-stranded DNA": {"test_system": "double-stranded DNA", "test": "Absorbance 480 to 800 nm of phthalocyanine mixed with double-stranded DNA solution", "format": "binding", "settings": "15 μM compound solution, DNA 50 μM, pH7", "protocol": "A solution of 50 mM HEPES and 100 mM NaCl, pH7 (total volume: 100 μL) containing a single-stranded DNA consisting of a sequence of 5′-AGAAGAGAAAGA-3′ (SEQ ID NO: 4) and a single-stranded DNA consisting of a sequence of 5′-TCTTTCTCTTCT-3′ (SEQ ID NO: 5) at each concentration of 50 μM was prepared, which was incubated at 90° C. for 5 min, and thereafter cooled to 0° C. at a rate of temperature fall of 2° C./min, followed by finally incubating at 0° C. for 2 hrs. Since the aforementioned two kinds of DNAs are complementary to one another, both DNAs form a double-stranded DNA in the solution as a result of the incubation (hereafter, the solution referred to as “double-stranded DNA solution”).\nas §4\nas §4, with “NiPC” for “CuPC”, “respectively;” for “respectively. And then”, “11(A)” for “9(A)”, “11(B)” for “9(B)”, “respectively. In each drawing, the result obtained when the NC solution was used is also shown together.” for “respectively.”\nas §4, with “PC” for “CuPC”, “respectively;” for “respectively. And then”, “mixture” for “mixtures”, “13(A)” for “9(A)”, “13(B)” for “9(B)”, “respectively. In each drawing, the result obtained when the NC solution was used is also shown together.” for “respectively.”\nas §4, with “CoPC” for “CuPC”, “respectively, and” for “respectively. And”, “15(A)” for “9(A)”, “15(B)” for “9(B)”, “respectively. In each drawing, the result obtained when the NC solution was used is also shown together.” for “respectively.”"}}, "data": [{"compound": "C[n+]1ccc(-c2c3nc(c(-c4cc[n+](C)cc4)c4ccc([nH]4)c(-c4cc[n+](C)cc4)c4nc(c(-c5cc[n+](C)cc5)c5ccc2[nH]5)C=C4)C=C3)cc1", "note": "[TMPyP, reference compound]", "values": [{"measurement": "total DNA concentration corresponding to the ladder peaks in the reaction product", "setting": "telomerase [1]", "value": 2.7, "unit": "ng/µL"}, {"measurement": "DNA concentration corresponding to the PCR control peak", "setting": "TITANIUM Taq polymerase", "value": "not beyond the detection limit"}, {"measurement": "inhibition of the telomerase reaction (band of telomerase reaction product)", "setting": "telomerase [2]; in the presence of λDNA", "value": "not inhibited at all"}, {"measurement": "inhibition of the telomerase reaction (band of telomerase reaction product)", "setting": "telomerase [2]; no addition of λDNA", "value": "inhibited the telomerase reaction"}, {"measurement": "amplification of the PCR control (band)", "setting": "[3]", "value": "became weaker"}]}, {"compound": "Cobalt(II) phthalocyanine tetracarboxylic acid [CoPC]", "values": [{"measurement": "interaction with the G-quadruplex structure (absorption peak)", "setting": "[4]", "value": "an interaction occurred"}, {"measurement": "elevation of the peaks in the range of 640 to 720 nm with G-quadruplex", "setting": "[4]; compared with CuPC, NiPC or PC", "value": "less than the resultant elevation when CuPC, NiPC or PC was used"}, {"measurement": "interaction with the single-stranded DNA (absorption spectrum vs NC solution)", "setting": "single-stranded DNA", "value": "an interaction did not occur"}, {"measurement": "interaction with the double-stranded DNA (absorption spectrum vs NC solution)", "setting": "double-stranded DNA", "value": "an interaction did not occur"}]}, {"compound": "Phthalocyanine tetrasulfonic acid [PC]", "values": [{"measurement": "interaction with the G-quadruplex structure (absorption peak)", "setting": "[4]", "value": "an interaction occurred"}, {"measurement": "interaction with the single-stranded DNA (absorption spectrum vs NC solution)", "setting": "single-stranded DNA", "value": "an interaction did not occur"}, {"measurement": "interaction with the double-stranded DNA (absorption spectrum vs NC solution)", "setting": "double-stranded DNA", "value": "an interaction did not occur"}]}, {"compound": "Zinc(II) phthalocyanine tetrasulfonic acid [ZnPC]", "values": [{"measurement": "interaction with the G-quadruplex structure (absorption peak)", "setting": "[4]", "value": "specifically interacted with a G-quadruplex structure"}]}]}
